Test systems include HOP-62; UACC-62; SF-268; 786-0; HCC 2998; M14; MOLT-4; NCI-H23; SF-539; HCT-15; Malme-3M; COLO 205; UACC-257; SK-MEL-2; TK-10; A498.
Holding throughout (test): NCI tumour cell line growth inhibition, 48 h

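Method: 48-hour compound exposure of cells in 96-well plates, five concentrations, linear interpolation of endpoints. GI50: concentration for 50% inhibition of growth.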 Activity calls are given as the source filed them. Cut-off read from the data, not from the text of the source: active = GI50 up to about 1.1 µM and inactive = higher.

With `O=S(=O)(/C=C/C(=C/c1ccccc1)S(=O)(=O)c1ccccc1)c1ccccc1`, the GI50 was 1.94 µM (inactive) in the test with HOP-62; 2.16 µM (inactive) in the test with UACC-62; 1.91 µM (inactive) with SF-268; 1.77 µM (inactive) with 786-0; 1.95 µM (inactive) in the test on HCC 2998; 1.28 µM (inactive) in the test on M14. Moreover, the GI50 is 1.52 µM (inactive) with MOLT-4; 1.93 µM (inactive) in the test with NCI-H23; 1.77 µM (inactive) in the test with SF-539; 1.51 µM in the test with HCT-15; 1.81 µM (inactive) with Malme-3M; 2.16 µM (inactive) in the test on COLO 205. Further, the GI50 is 1.55 µM (inactive) in the test with UACC-257, 1.89 µM (inactive) in the test with SK-MEL-2 and 1.85 µM (inactive) with TK-10.
For `COC(=O)c1cccc2cccc(C(=O)Nc3ccc(Cl)cc3)c12`, the GI50 in the test with UACC-62 is 0.153 µM (active); with SF-268 it was > 68.7 µM (inactive); with 786-0, > 100 µM (inactive); in the test with HCC 2998, 6.17 µM (inactive); with M14, 0.951 µM (active); in the test on MOLT-4 it was 3.1 µM (inactive). The GI50 in the test with NCI-H23 is 12.7 µM (inactive); in the test on SF-539, 21.3 µM (inactive); in the test with HCT-15, > 35.2 µM; in the test with A498 it was 36.1 µM (inactive); with Malme-3M it was > 100 µM (inactive); in the test with COLO 205, 0.977 µM (active). Besides, the GI50 in the test on UACC-257 is > 100 µM (inactive); in the test with SK-MEL-2, 1.84 µM (inactive); with TK-10 it was > 100 µM (inactive).
`CC1OC(n2cc(Cl)c(=O)[nH]c2=O)C=C(OC(=O)c2ccccc2)C1=O` (configuration not stated): the GI50 with HOP-62, with UACC-62, in the test with 786-0, with M14, in the test with MOLT-4 and in the test on NCI-H23 was > 100 µM (inactive) in each case. The GI50 was > 100 µM (inactive) with SF-539; > 100 µM in the test on HCT-15; > 100 µM (inactive) with Malme-3M; > 100 µM (inactive) in the test on COLO 205; > 100 µM (inactive) with UACC-257; > 100 µM (inactive) with SK-MEL-2. Besides, in the test with TK-10, the GI50 is > 100 µM (inactive).
Consider `c1ccc2c(c1)c1ccccc1c1n[se]nc21`, for which the GI50 is > 100 µM (inactive) in the test with UACC-62; > 100 µM (inactive) with SF-268; 39 µM (inactive) with 786-0; > 100 µM (inactive) in the test on M14; > 100 µM (inactive) in the test on MOLT-4; > 100 µM (inactive) with NCI-H23. The GI50 is 34.6 µM (inactive) in the test with SF-539; > 100 µM in the test on HCT-15; 19.5 µM (inactive) in the test with A498; > 100 µM (inactive) in the test with Malme-3M; > 100 µM (inactive) with COLO 205; > 100 µM (inactive) in the test with UACC-257. In addition, the GI50 was > 100 µM (inactive) with SK-MEL-2 and 48.4 µM (inactive) in the test with TK-10.
With `S=P(c1ccccc1)(c1ccccc1)C1(C2(P(=S)(c3ccccc3)c3ccccc3)CC2)CC1`, the GI50 in the test with HOP-62, in the test on UACC-62, in the test on SF-268, in the test with 786-0, with HCC 2998 and in the test with M14 was > 100 µM (inactive) throughout. Besides, the GI50 in the test on MOLT-4 is > 100 µM (inactive); in the test on NCI-H23, > 100 µM (inactive); in the test with SF-539 it was > 100 µM (inactive); in the test with HCT-15 it was > 100 µM; with COLO 205 it was > 100 µM (inactive); with SK-MEL-2, > 100 µM (inactive). Further, the GI50 in the test on TK-10 was > 100 µM (inactive).
Regarding `C#CCN(N=O)C(=O)NCCCCC(NC(=O)OCc1ccccc1)C(=O)OCc1ccccc1` (configuration not stated), the GI50 in the test on HOP-62 was > 100 µM (inactive); in the test on UACC-62, 30.6 µM (inactive); in the test with SF-268, 27.6 µM (inactive); with 786-0 it was > 100 µM (inactive); in the test on HCC 2998 it was > 100 µM (inactive); with M14 it was 27 µM (inactive). Further, the GI50 in the test on MOLT-4 was 20.7 µM (inactive); in the test with NCI-H23, 34.6 µM (inactive); in the test on SF-539, 16.3 µM (inactive); in the test on HCT-15, 33.7 µM; in the test on A498, > 100 µM (inactive); with Malme-3M, 29.9 µM (inactive). Moreover, the values for the GI50 with UACC-257, with SK-MEL-2 and in the test on TK-10 were 37.2 µM (inactive), 40 µM (inactive) and > 100 µM (inactive), respectively.
For the compound `Cc1cc(NS(=O)(=O)c2ccc(Nc3c4ccccc4nc4c(C(=O)Nc5ccc(S(N)(=O)=O)cc5)cccc34)cc2)no1`, the GI50 with HOP-62 was 35.4 µM (inactive); in the test with UACC-62 it was 24.8 µM (inactive); in the test on SF-268, 36.9 µM (inactive); with 786-0, > 100 µM (inactive); in the test on M14, > 100 µM (inactive); in the test on MOLT-4 it was 27 µM (inactive). The GI50 in the test on NCI-H23 is 47.5 µM (inactive); in the test on SF-539, 21.3 µM (inactive); in the test on HCT-15, > 100 µM; with A498 it was > 100 µM (inactive); with Malme-3M, 17.9 µM (inactive); with COLO 205, 34.8 µM (inactive). Also, the GI50 was > 100 µM (inactive) with UACC-257, 24.1 µM (inactive) in the test on SK-MEL-2 and > 100 µM (inactive) in the test on TK-10.
Regarding `O=C(CSc1nc(-c2ccccc2)c(-c2ccccc2)[nH]1)N/N=C/c1ccc(O)cc1`, the GI50 was 19.3 µM (inactive) in the test with HOP-62; 22.1 µM (inactive) with UACC-62; 26.6 µM (inactive) in the test with SF-268; 22.6 µM (inactive) in the test on 786-0; 19.6 µM (inactive) in the test on HCC 2998; 19 µM (inactive) in the test on M14. The GI50 was 15.7 µM (inactive) in the test with MOLT-4; 3.76 µM (inactive) in the test with NCI-H23; 19.1 µM (inactive) in the test with SF-539; 21.4 µM (inactive) in the test on Malme-3M; 19.5 µM (inactive) in the test with COLO 205; 4.86 µM (inactive) with UACC-257. In addition, the values for the GI50 in the test with SK-MEL-2 and with TK-10 were 24.5 µM (inactive) and 27.6 µM (inactive), respectively.
For the compound `COC(=O)/C1=C/C2CC(/C=C(/c3ccccc3)C(=O)O1)C2`, the GI50 in the test on HOP-62 is 44.2 µM (inactive); in the test with UACC-62 it was 14.7 µM (inactive); with 786-0 it was 37.5 µM (inactive); in the test on M14, 29.2 µM (inactive); with MOLT-4 it was 17.5 µM (inactive); with NCI-H23, 17 µM (inactive). Moreover, the GI50 in the test on SF-539 is 33.3 µM (inactive); with HCT-15 it was 18.8 µM; in the test with Malme-3M it was 12.1 µM (inactive); with COLO 205, 19.1 µM (inactive); with UACC-257 it was 8.53 µM (inactive); in the test with TK-10, 32.7 µM (inactive).
With `NS(=O)(=O)c1cc2c(cc1Cl)NC(/C(=N/NC(=O)c1ccncc1)C1C(=O)NC(=O)NC1=O)=NS2(=O)=O`, the GI50 in the test on HOP-62, with UACC-62, in the test with 786-0, with HCC 2998, in the test with M14 and in the test on MOLT-4 was > 100 µM (inactive) in each case. The GI50 with SF-539 is > 100 µM (inactive); in the test on HCT-15, > 100 µM; in the test with A498, > 100 µM (inactive); in the test with Malme-3M, > 100 µM (inactive); in the test on COLO 205, > 100 µM (inactive); in the test with UACC-257 it was > 100 µM (inactive). Moreover, the GI50 in the test on SK-MEL-2 and with TK-10 was > 100 µM (inactive) in each case.
Consider `COc1cc2c(oc(=O)c3c4occc4cc(OC)c23)c2cccc(O)c12`, for which the GI50 in the test on HOP-62, in the test with UACC-62, in the test with SF-268, with 786-0, in the test with HCC 2998 and in the test on M14 was > 100 µM (inactive) in each case. Moreover, the GI50 was > 100 µM (inactive) in the test with MOLT-4; > 100 µM (inactive) in the test with NCI-H23; > 100 µM (inactive) with SF-539; > 100 µM with HCT-15; > 100 µM (inactive) in the test with A498; > 100 µM (inactive) in the test on Malme-3M. Besides, the GI50 in the test with COLO 205, in the test with UACC-257 and in the test on TK-10 was > 100 µM (inactive) in each case.
With `N#CC(c1ccc(Cl)cc1)c1cccc(C(C#N)c2ccc(Cl)cc2)n1` (configuration not stated), the GI50 in the test with HOP-62 is 93.8 µM (inactive); in the test with UACC-62 it was 14 µM (inactive); in the test on SF-268, 27 µM (inactive); in the test on 786-0, 50.4 µM (inactive); in the test with HCC 2998 it was 37.4 µM (inactive); with M14 it was 34.8 µM (inactive). Besides, the GI50 in the test on MOLT-4 was 8.02 µM (inactive); in the test on NCI-H23, 3.95 µM (inactive); with A498 it was 2.31 µM (inactive); with Malme-3M, 30.6 µM (inactive); in the test on COLO 205, 14.4 µM (inactive); in the test with UACC-257, 14.1 µM (inactive). Moreover, the GI50 in the test on SK-MEL-2 was 13.7 µM (inactive); in the test on TK-10, 7.29 µM (inactive).
Consider `Cc1cc(NS(=O)(=O)c2ccc(NC(=O)c3cccc4c(N)c5ccccc5nc34)cc2)no1`, for which the GI50 with HOP-62 is 29.6 µM (inactive); with UACC-62, 28 µM (inactive); in the test with SF-268, 21 µM (inactive); with 786-0, 17.9 µM (inactive); with M14, 27.5 µM (inactive); in the test on MOLT-4 it was 28.9 µM (inactive). The GI50 with NCI-H23 was 21.8 µM (inactive); in the test on SF-539, 21.1 µM (inactive); in the test on HCT-15, 33 µM; in the test with A498, 19.4 µM (inactive); in the test on Malme-3M, 30.9 µM (inactive); with COLO 205 it was 22.6 µM (inactive). Moreover, the GI50 with SK-MEL-2 was 18.7 µM (inactive); in the test on TK-10, 43.1 µM (inactive).
Consider `N#C/C(=C/c1ccc([N+](=O)[O-])o1)c1ccccc1`, for which the GI50 with HOP-62, in the test on UACC-62, with SF-268, in the test on 786-0, in the test with HCC 2998 and in the test with M14 was > 100 µM (inactive) each time. The GI50 in the test on MOLT-4, in the test on NCI-H23, in the test on SF-539, in the test on Malme-3M, in the test with COLO 205 and in the test on UACC-257 was > 100 µM (inactive) throughout. For the same compound, the GI50 with SK-MEL-2 and with TK-10 was > 100 µM (inactive) each time.

(Values after ChEMBL document CHEMBL1201862, “PubChem BioAssay data set” (2004).)
